Tests used:
[1] = target: T1, JNK1 (Homo sapiens, UniProt P45983); test: KINOMEscan competition binding assay, selectivity against off-target JNK1; settings: concentration of 100 nM
T1 construct: M1/Q384; host or cells: HEK-293
How it was run: (§1)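 DNA-tagged kinases expressed in HEK-293 cells compete between test compound and immobilized ligand on blocked beads. Bound kinase is eluted and quantified by qPCR of the DNA tag. Compounds were tested at the indicated final concentrations, prepared from 10 mM stocks.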

[2] = target: T2, MKK4 (Homo sapiens, UniProt P45985); test: KINOMEscan competition binding assay, MKK4 potency; settings: concentration of 100 nM
T2 construct: S84/D399; host or cells: HEK-293
T2 sequence (P45985 84-399): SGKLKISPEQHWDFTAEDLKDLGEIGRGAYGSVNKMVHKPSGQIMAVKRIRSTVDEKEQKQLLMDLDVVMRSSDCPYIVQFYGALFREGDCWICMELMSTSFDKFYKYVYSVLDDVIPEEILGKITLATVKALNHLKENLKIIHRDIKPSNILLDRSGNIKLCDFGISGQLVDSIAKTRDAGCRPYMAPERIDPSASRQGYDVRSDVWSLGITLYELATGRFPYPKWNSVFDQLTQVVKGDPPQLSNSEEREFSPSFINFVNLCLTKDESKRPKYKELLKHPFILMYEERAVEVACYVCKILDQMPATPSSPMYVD
How it was run: as §1

[3] = target: T3, MKK4-MEKK2 mix (Homo sapiens, UniProt P45985); test: Radiometric protein kinase assay, MEKK2 dependent MKK4 activation (cascade); format: biochemical; settings: substrate JNK1 KRKR, ATP 0.2 μM, read-out: Cascade, potency derived from IC50-values
T3 construct: MEKK2, recombinant, active: ProQinase product #0583-0000-1
T3 sequence (P45985 2-399): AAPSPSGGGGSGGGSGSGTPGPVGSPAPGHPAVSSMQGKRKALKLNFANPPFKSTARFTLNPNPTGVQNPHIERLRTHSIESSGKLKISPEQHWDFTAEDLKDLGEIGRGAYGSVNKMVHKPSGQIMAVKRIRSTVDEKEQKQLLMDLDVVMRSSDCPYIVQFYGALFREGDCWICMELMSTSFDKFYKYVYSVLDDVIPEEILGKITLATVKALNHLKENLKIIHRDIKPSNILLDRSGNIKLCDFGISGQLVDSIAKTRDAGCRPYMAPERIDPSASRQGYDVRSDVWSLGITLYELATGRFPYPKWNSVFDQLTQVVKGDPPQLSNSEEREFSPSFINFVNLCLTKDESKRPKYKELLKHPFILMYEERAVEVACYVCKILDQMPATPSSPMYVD
Protocol: The activation step is done in 50 mM HEPES pH 7.5, 50 mM NaCl, 3.8 mM MgCl2, 2.5 mM DTT, 10% (v/v) glycerol. Final DMSO concentration is 1%. The activation mixture is pipetted in the following order • 2.5 μl compound in 4% DMSO • 2.5 μl ATP/MgCl2 mix • 5 μl premixed kinase solution MKK4:MEKK2 10:1 (w/w)
Protein concentrations in the activation mix are 1 μM MKK4 and 50 nM MEKK2.
(§2) A radiometric protein kinase assay was used for measuring the kinase activity of the respective protein kinases. All kinase assays were performed in 96-well polypropylene plates. After the reactions were stopped, the assay mixtures were transferred to 96-well MSFC filter-plates (Millipore). The reaction mix was passed through the filter membrane by aspiration, the membrane was washed 3 times with 150 mM H3PO4, once with ethanol, dried and liquid scintillation cocktail was added. Radioactivity was determined by counting of the samples in a Microbeta multiwell scintillation counter (Wallac).

[4] = target: BRaf (Homo sapiens, UniProt P15056); test: KINOMEscan competition binding assay, selectivity against off-target BRaf; settings: concentration of 100 nM
How it was run: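 Competition binding: test compound competes with an immobilized ligand for DNA-tagged BRaf, and kinase captured on the ligand is quantified by qPCR of the DNA tag. Compounds from 10 mM stocks were tested at the indicated final concentrations.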

[5] = target: T4, MKK4 active (Homo sapiens, UniProt P45985); test: Radiometric protein kinase assay, MKK4 active; format: biochemical; settings: substrate JNK1 KRKR, ATP 0.2 μM, read-out: MKK4, potency derived from IC50-values
T4 construct: purchased ProQinase #0948-0000-1
T4 sequence (P45985 1-399): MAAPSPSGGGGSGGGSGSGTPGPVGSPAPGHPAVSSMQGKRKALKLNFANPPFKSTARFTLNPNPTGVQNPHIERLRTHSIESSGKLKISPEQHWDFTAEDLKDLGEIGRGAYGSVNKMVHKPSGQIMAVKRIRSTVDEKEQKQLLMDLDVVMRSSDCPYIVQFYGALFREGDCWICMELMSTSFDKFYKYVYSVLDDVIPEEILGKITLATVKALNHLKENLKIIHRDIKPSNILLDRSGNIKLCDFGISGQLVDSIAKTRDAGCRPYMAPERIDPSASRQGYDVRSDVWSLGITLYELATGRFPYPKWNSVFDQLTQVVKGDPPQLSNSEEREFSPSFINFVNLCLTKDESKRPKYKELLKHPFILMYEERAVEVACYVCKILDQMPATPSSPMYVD
Protocol: as §2

[6] = target: T5, MEKK2 (Homo sapiens, UniProt Q9Y2U5); test: Radiometric protein kinase assay, MEKK2; format: biochemical; settings: substrate Casein, ATP 0.2 μM; read-out: MEKK2, potency derived from IC50-values
T5 construct: purchased ProQinase #0583-0000-1
T5 sequence (Q9Y2U5 1-619): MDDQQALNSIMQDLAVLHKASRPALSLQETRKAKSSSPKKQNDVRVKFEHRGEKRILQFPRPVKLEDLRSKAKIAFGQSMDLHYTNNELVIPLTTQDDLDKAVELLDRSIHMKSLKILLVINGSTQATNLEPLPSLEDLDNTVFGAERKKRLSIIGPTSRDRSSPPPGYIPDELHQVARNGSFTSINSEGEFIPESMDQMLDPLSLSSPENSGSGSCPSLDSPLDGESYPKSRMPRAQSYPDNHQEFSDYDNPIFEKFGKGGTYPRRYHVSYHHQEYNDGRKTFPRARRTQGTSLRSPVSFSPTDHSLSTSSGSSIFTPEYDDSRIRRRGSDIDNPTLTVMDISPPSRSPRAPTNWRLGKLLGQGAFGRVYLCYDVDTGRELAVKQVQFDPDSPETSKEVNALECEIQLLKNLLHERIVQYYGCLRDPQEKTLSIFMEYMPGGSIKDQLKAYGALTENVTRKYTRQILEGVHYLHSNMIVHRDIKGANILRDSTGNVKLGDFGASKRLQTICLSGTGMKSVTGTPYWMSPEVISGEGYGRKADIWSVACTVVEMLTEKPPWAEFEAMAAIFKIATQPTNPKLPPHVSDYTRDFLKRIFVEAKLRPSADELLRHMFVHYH
Protocol: as §2

[7] = target: T6, MKK7 (Homo sapiens, UniProt O14733); test: KINOMEscan competition binding assay, selectivity against off-target MKK7; settings: concentration of 100 nM
T6 construct: M1/R419; host or cells: HEK-293
T6 sequence (O14733 1-419): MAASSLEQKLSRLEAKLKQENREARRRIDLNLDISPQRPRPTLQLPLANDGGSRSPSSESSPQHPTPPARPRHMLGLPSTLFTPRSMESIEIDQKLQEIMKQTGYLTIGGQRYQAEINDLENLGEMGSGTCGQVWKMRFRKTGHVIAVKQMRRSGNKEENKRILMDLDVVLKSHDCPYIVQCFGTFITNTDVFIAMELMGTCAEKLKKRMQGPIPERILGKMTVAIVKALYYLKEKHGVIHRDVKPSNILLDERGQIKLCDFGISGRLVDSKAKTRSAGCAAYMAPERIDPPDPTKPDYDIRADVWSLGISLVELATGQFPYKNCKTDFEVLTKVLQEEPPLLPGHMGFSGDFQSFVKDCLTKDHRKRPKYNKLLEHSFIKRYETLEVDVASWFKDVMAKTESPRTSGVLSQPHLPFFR
How it was run: as §1

Sequence of BRaf (P15056 whole entry): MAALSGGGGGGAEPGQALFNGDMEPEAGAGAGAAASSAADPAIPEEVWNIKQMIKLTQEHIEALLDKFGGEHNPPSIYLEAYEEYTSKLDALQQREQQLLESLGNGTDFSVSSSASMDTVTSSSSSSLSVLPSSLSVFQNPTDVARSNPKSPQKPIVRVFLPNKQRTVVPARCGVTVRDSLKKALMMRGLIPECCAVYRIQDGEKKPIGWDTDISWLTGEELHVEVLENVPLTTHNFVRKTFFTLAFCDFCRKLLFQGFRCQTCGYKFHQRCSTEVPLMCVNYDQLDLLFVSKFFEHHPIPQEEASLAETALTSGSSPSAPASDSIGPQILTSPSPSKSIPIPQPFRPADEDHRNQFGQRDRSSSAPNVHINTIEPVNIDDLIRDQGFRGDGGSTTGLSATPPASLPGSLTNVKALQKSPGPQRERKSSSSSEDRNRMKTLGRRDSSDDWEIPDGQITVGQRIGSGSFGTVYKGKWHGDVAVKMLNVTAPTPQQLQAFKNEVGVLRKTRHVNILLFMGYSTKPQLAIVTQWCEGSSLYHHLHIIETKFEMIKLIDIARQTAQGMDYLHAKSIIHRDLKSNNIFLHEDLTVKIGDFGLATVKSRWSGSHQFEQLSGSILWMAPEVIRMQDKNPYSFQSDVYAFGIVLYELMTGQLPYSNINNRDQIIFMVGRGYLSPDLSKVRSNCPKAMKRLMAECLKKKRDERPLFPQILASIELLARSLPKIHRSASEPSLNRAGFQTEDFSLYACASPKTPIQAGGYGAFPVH
T1 sequence (P45983 1-384 isoform P45983-2): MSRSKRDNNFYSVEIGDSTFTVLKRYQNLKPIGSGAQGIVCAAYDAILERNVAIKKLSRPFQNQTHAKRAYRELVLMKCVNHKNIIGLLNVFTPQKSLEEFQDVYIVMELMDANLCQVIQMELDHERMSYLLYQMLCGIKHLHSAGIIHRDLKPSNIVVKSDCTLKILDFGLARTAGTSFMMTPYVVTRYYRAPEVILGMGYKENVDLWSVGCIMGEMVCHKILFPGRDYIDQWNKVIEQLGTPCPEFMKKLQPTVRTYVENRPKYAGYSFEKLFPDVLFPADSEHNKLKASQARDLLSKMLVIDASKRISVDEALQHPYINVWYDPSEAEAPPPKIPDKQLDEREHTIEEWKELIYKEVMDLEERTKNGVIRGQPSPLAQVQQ

| SMILES | Selectivity vs. JNK1, ratio PoC(JNK1)/PoC(MKK4) [1] | MKK4, residual percent of control binding (PoC) [2] | IC50 [3] | Selectivity vs. BRaf, ratio PoC(BRaf)/PoC(MKK4) [4] | IC50 [5] | IC50 [6] | Selectivity vs. MKK7, ratio PoC(MKK7)/PoC(MKK4) [7] |
| --- | --- | --- | --- | --- | --- | --- | --- |
| CCCS(=O)(=O)Nc1ccc(F)c(C(=O)c2n[nH]c3ncc(-c4ccc(C(=O)O)cc4)cc23)c1F [Example 51d, 4-(3-(2,6-difluoro-3-(propylsulfonamido)benzoyl)-1H-pyrazolo[3,4-b]pyridin-5-yl)benzoic acid] | +++ (PoC(JNK1)/PoC(MKK4) ≥ 30) | +++ (PoC < 1) | < 500 nM | ++ (30 > PoC(BRaf)/PoC(MKK4) ≥ 10) | < 500 nM | 1000 to 10000 nM | +++ (PoC(MKK7)/PoC(MKK4) ≥ 30) |
| CCCS(=O)(=O)Nc1ccc(F)c(C(=O)c2n[nH]c3ncc(-c4ccc(N)cc4)cc23)c1F [Example 18, N-(3-(5-(4-aminophenyl)-1H-pyrazolo[3,4-b]pyridine-3-carbonyl)-2,4-difluorophenyl)-propane-1-sulfonamide] | +++ (PoC(JNK1)/PoC(MKK4) ≥ 30) | +++ (PoC < 1) | 500 to 1000 nM | ++ (30 > PoC(BRaf)/PoC(MKK4) ≥ 10) | < 500 nM | 1000 to 10000 nM | +++ (PoC(MKK7)/PoC(MKK4) ≥ 30) |
| CCCS(=O)(=O)Nc1ccc(F)c(C(=O)c2n[nH]c3ncc(-c4ccccc4O)cc23)c1F [Example 21, N-(2,4-difluoro-3-(5-(2-hydroxyphenyl)-1H-pyrazo-lo[3,4-b]pyridine-3-carbonyl)-phenyl)propane-1-sulfon-amide] | + (10 > PoC(JNK1)/PoC(MKK4) ≥ 3) | ++ (1 ≤ PoC < 10) | 1000 to 10000 nM | + (10 > PoC(BRaf)/PoC(MKK4) ≥ 3) | 500 to 1000 nM | 1000 to 10000 nM | ++ (30 > PoC(MKK7)/PoC(MKK4) ≥ 10) |
| CCCS(=O)(=O)Nc1ccc(F)c(C(=O)c2n[nH]c3ncc(-c4ccc(C(=O)NCC(O)CO)cc4)cc23)c1F (stereo not shown) [Example 51l, 4-(3-(2,6-difluoro-3-(propylsulfonamido)benzoyl)-1H-pyrazolo[3,4-b]pyridin-5-yl)-N-(2,3-dihydroxypropyl)benzamide] | +++ (PoC(JNK1)/PoC(MKK4) ≥ 30) | +++ (PoC < 1) | 1000 to 10000 nM | O (PoC(BRaf)/PoC(MKK4) < 3) | 500 to 1000 nM | 1000 to 10000 nM | +++ (PoC(MKK7)/PoC(MKK4) ≥ 30) |

Reference: US12264158B2, “Protein kinase MKK4 inhibitors for promoting liver regeneration or reducing or preventing hepatocyte death” (HEPAREGENIX GMBH, priority 2018, dated 2025)
